Measurements: patent US9458154B2, “Kinase inhibitors” (Chiesi Farmaceutici S.p.A., priority 2011, dated 2016)
pIC50: −log10 of the molar value.

biological target: T1, p38alpha (Homo sapiens, UniProt Q16539); assay: P38alpha Enzyme Inhibition Assay (Alphascreen kinase activity assay); format: biochemical; details: 100 pM p38alpha, ATF-2 fusion protein substrate, 250 μM ATP, 2 hours preincubation at 25° C.; read-out: p38α inhibition
T1 construct: purchased Invitrogen PV3304
Description: P38alpha Enzyme Inhibition Assay
The inhibitory activity of compounds was determined using an Alphascreen® (Perkin Elmer) based kinase activity assay. Kinase reactions consisted of 25 mM HEPES pH 7.5, 10 mM MgCl2, 100 μM Na3VO4, 2 mM DTT, 0.05 mg/ml Tween 20, 100 pM p38alpha (Invitrogen, PV3304), 1% DMSO and 0.3 μg/ml ATF-2 fusion protein (New England Biolabs, 9224). Compounds were incubated under these conditions for 2 hours, at 25° C., prior to the initiation of the kinase activity by the addition of the 250 μM ATP. Reaction volumes were 20 uL. After 1 hr at 25° C. reactions were stopped by the adding 10 uL of 25 mM HEPES pH 7.5 containing 62.5 mM EDTA, 0.05% Triton X-100, 10% BSA and 0.83 ng/uL anti-phospho-ATF2 antibody (Abcam, ab28812). Detection was performed by measuring luminescence following the addition of Alphascreen Donor beads (Perkin Elmer 6765300) and Protein A Alphascreen Acceptor beads (Perkin Elmer 6760137), both at a final concentration of 20 ug/ml. IC50 values were determined from concentration-response curves.

T1 sequence (Q16539 whole entry, the tested form may be a part): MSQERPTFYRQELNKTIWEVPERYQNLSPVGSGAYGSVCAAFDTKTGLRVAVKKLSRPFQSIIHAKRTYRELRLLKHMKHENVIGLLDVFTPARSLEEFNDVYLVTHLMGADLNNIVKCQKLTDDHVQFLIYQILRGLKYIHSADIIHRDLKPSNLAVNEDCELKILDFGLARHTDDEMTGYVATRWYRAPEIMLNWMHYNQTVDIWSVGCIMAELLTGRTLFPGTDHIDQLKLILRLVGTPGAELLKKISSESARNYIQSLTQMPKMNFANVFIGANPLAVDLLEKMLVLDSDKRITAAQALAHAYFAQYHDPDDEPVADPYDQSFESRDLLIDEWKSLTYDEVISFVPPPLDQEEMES

pIC50	Structure (SMILES)
> 8.00	Cc1ccc(-n2nc(C(C)(C)C)cc2NC(=O)N[C@H]2CC[C@@H](Oc3ccn4c(C(C)C)nnc4c3)c3ccccc32)cc1 [Example 5, 1-(5-tert-Butyl-2-p-tolyl-2H-pyrazol-3-yl)-3-[(1S,4R)-4-(3-isopropyl-[1,2,4]triazolo[4,3-a]pyridin-7-yloxy)-1,2,3,4-tetrahydro-naphthalen-1-yl]-urea]
> 8.00	CC(C)c1nnc2ccc(O[C@H]3CC[C@H](NC(=O)Nc4cc(C(C)(C)C)nn4-c4ccc(O)c(Cl)c4)c4ccccc43)cn12 [Example 25, 1-[5-tert-Butyl-2-(3-chloro-4-hydroxy-phenyl)-2H-pyrazol-3-yl]-3-[(1S,4S)-4-(3-isopropyl-[1,2,4]triazolo[4,3-a]pyridin-6-yloxy)-1,2,3,4-tetrahydro-naphthalen-1-yl]-urea]
> 8.00	Cc1ccc(-n2nc(C(C)(C)C)cc2NC(=O)N[C@H]2CC[C@@H](Oc3ccc4nnc(-c5c(Cl)cccc5Cl)n4c3)c3ccccc32)cc1 [Example 20]
> 8.00	Cc1ccc(-n2nc(C(C)(C)C)cc2NC(=O)N[C@@H]2C[C@@H](Sc3ccc4nnc(C(C)C)n4c3)c3ccccc32)cc1 (racemic) [Example 3, (±)-trans-1-(5-tert-Butyl-2-p-tolyl-2H-pyrazol-3-yl)-3-[3-(3-isopropyl-[1,2,4]triazolo[4,3-a]pyridin-6-ylsulfanyl)-indan-1-yl]-urea]
> 8.00	Cc1ccc(-n2nc(C(C)(C)C)cc2NC(=O)N[C@H]2CC[C@@H](Oc3ccc4nnc(C5CC5)n4c3)c3ccccc32)cc1 [Example 21, 1-(5-tert-Butyl-2-p-tolyl-2H-pyrazol-3-yl)-3-[(1S,4R)-4-(3-cyclopropyl-[1,2,4]triazolo[4,3-a]pyridin-6-yloxy)-1,2,3,4-tetrahydro-naphthalen-1-yl}-urea]
> 8.00	Cc1ccc(-n2nc(C(C)(C)C)cc2NC(=O)N[C@H]2CC[C@@H](Oc3ccc4nnc(C(C)(C)C)n4c3)c3ccccc32)cc1 [Example 16, 1-(5-tert-Butyl-2-p-tolyl-2H-pyrazol-3-yl)-3-[(1S,4R)-4-(3-tert-butyl-[1,2,4]triazolo[4,3-a]pyridin-6-yloxy)-1,2,3,4-tetrahydro-naphthalen-1-yl]-urea]
7.00 to 8.00	CC(C)c1nnc2ccc(O[C@@H]3CC[C@H](NC(=O)NC4CC4)c4ccccc43)cn12 [Example 13, 1-Cyclopropyl-3-[(1S,4R)-4-(3-isopropyl-[1,2,4]triazolo[4,3-a]pyridin-6-yloxy)-1,2,3,4-tetrahydro-naphthalen-1-yl]-urea]
> 8.00	CC(C)c1nnc2ccc(O[C@@H]3CC[C@H](NC(=O)Nc4cc(C(C)(C)C)nn4-c4ccc(Cl)c(O)c4)c4ccccc43)cn12 [Example 14, 1-(5-tert-Butyl-2-(4-chloro-3-hydroxyphenyl)-2H-pyrazol-3-yl)-3-[(1S,4R)-4-(3-isopropyl-[1,2,4]triazolo[4,3-a]pyridin-6-yloxy)-1,2,3,4-tetrahydronaphthalen-1-yl]-urea]
> 8.00	CC(C)c1nnc2ccc(O[C@H]3CC[C@H](NC(=O)Nc4cc(C(C)(C)C)nn4-c4ccc(Cl)c(O)c4)c4ccccc43)cn12 [Example 27, 1-[5-tert-Butyl-2-(4-chloro-3-hydroxy-phenyl)-2H-pyrazol-3-yl]-3-[(1S,4S)-4-(3-isopropyl-[1,2,4]triazolo[4,3-a]pyridin-6-yloxy)-1,2,3,4-tetrahydro-naphthalen-1-yl]-urea]
> 8.00	CC(C)c1nnc2ccc(O[C@H]3C[C@H](NC(=O)Nc4cc(C(C)(C)C)on4)c4ccccc43)cn12 [Example 8, 1-(5-tert-Butyl-isoxazol-3-yl)-3-[(1S,3S)-3-(3-isopropyl-[1,2,4]triazolo[4,3-a]pyridin-6-yloxy)-indan-1-yl]-urea]
> 8.00	CC(C)c1nnc2ccc(O[C@H]3CC[C@H](NC(=O)Nc4cc(F)cc(N5CCOCC5)c4)c4ccccc43)cn12 [Example 30, 1-(3-Fluoro-5-morpholin-4-yl-phenyl)-3-[(1S,4S)-4-(3-isopropyl-[1,2,4]triazolo[4,3-a]pyridin-6-yloxy)-1,2,3,4-tetrahydro-naphthalen-1-yl]-urea]
> 8.00	CC(C)c1nnc2ccc(O[C@@H]3CC[C@H](NC(=O)Nc4cc(C(C)(C)C)nn4-c4ccccc4)c4ccccc43)cn12 [Example 1, 1-(5-tert-Butyl-2-phenyl-2H-pyrazol-3-yl)-3-[(1S,4R)-4-(3-isopropyl-[1,2,4]triazolo[4,3-a]pyridin-6-yloxy)-1,2,3,4-tetrahydro-naphthalen-1-yl]-urea]
> 8.00	CC(C)c1nnc2ccc(O[C@@H]3CC[C@H](NC(=O)Nc4cc(C(C)(C)C)nn4-c4ccc(O)cc4)c4ccccc43)cn12 [Example 15, 1-[5-tert-Butyl-2-(4-hydroxy-phenyl)-2H-pyrazol-3-yl]-3-[(1S,4R)-4-(3-isopropyl-[1,2,4]triazolo[4,3-a]pyridin-6-yloxy)-1,2,3,4-tetrahydro-naphthalen-1-yl]-urea]
> 8.00	CC(C)c1nnc2ccc(O[C@H]3CC[C@H](NC(=O)NC4CC4)c4ccccc43)cn12 [Example 2, 1-Cyclopropyl-3-[(1S,4S)-4-(3-isopropyl-[1,2,4]triazolo[4,3-a]pyridin-6-yloxy)-1,2,3,4-tetrahydro-naphthalen-1-yl]-urea]
> 8.00	Cc1ccc(-n2nc(C(C)(C)C)cc2NC(=O)N[C@H]2CC[C@@H](Oc3ccc4nnc(C5CCCCC5)n4c3)c3ccccc32)cc1 [Example 26, 1-(5-tert-Butyl-2-p-tolyl-2H-pyrazol-3-yl)-3-[(1S,4R)-4-(3-cyclohexyl-[1,2,4]triazolo[4,3-a]pyridin-6-yloxy)-1,2,3,4-tetrahydro-naphthalen-1-yl]-urea]
> 8.00	Cc1ccc(-n2nc(C(C)(C)C)cc2NC(=O)N[C@H]2CC[C@@H](Oc3ccc4nnc(-c5ccccc5O)n4c3)c3ccccc32)cc1 [Example 7, 1-(5-tert-Butyl-2-p-tolyl-2H-pyrazol-3-yl)-3-{(1S,4R)-4-(3-(2-hydroxy-phenyl)-[1,2,4]triazolo[4,3-a]pyridin-6-yloxy)-1,2,3,4-tetrahydro-naphthalen-1-yl}-urea]
> 8.00	Cc1ccc(-n2nc(C(C)(C)C)cc2NC(=O)N[C@H]2CC[C@@H](Oc3ccc4nnc(C5CCCC5)n4c3)c3ccccc32)cc1 [Example 18, 1-(5-tert-Butyl-2-p-tolyl-2H-pyrazol-3-yl)-3-[(1S,4R)-4-(3-cyclopentyl-[1,2,4]triazolo[4,3-a]pyridin-6-yloxy)-1,2,3,4-tetrahydro-naphthalen-1-yl]-urea]
> 8.00	Cc1ccc(-n2nc(C(C)(C)C)cc2NC(=O)N[C@H]2CC[C@@H](Oc3ccc4nnc(-c5ccccc5Cl)n4c3)c3ccccc32)cc1 [Example 23]
> 8.00	Cc1ccc(-n2nc(C(C)(C)C)cc2NC(=O)N[C@H]2CC[C@@H](Oc3ccc4nnc(-c5ccccc5OCc5ccccc5)n4c3)c3ccccc32)cc1 [Example 24, 1-{(1S,4R)-4-[3-(2-Benzyloxy-phenyl)-[1,2,4]triazolo[4,3-a]pyridin-6-yloxy)-1,2,3,4-tetrahydro-naphthalen-1-yl}-3-(5-tert-butyl-2-p-tolyl-2H-pyrazol-3-yl)-urea]
> 8.00	CC(C)c1nnc2ccc(O[C@@H]3CC[C@H](NC(=O)Nc4cc(F)cc(N5CCOCC5)c4)c4ccccc43)cn12 [Example 29, 1-(3-Fluoro-5-morpholin-4-yl-phenyl)-3-[(1S,4R)-4-(3-isopropyl-[1,2,4]triazolo[4,3-a]pyridin-6-yloxy)-1,2,3,4-tetrahydro-naphthalen-1-yl]-urea]
> 8.00	CC(C)c1nnc2ccc(O[C@@H]3CC[C@H](NC(=O)Nc4cc(C(C)(C)C)nn4-c4cccc(OCCN(C)C)c4)c4ccccc43)cn12 [Example 11, 1-{5-tert-Butyl-2-[3-(2-dimethylamino-ethoxy)-phenyl]-2H-pyrazol-3-yl}-3-[(1S,4R)-4-(3-isopropyl-[1,2,4]triazolo[4,3-a]pyridin-6-yloxy)-1,2,3,4-tetrahydro-naphthalen-1-yl]-urea]
> 8.00	CC(C)c1nnc2ccc(O[C@@H]3CC[C@H](NC(=O)Nc4cc(C(C)(C)C)nn4-c4ccc(O)c(Cl)c4)c4ccccc43)cn12 [Example 12, 1-[5-tert-Butyl-2-(3-chloro-4-hydroxy-phenyl)-2H-pyrazol-3-yl]-3-[(1S,4R)-4-(3-isopropyl-[1,2,4]triazolo[4,3-a]pyridin-6-yloxy)-1,2,3,4-tetrahydro-naphthalen-1-yl]-urea]
> 8.00	Cc1ccc(-n2nc(C(C)(C)C)cc2NC(=O)N[C@H]2CC[C@@H](Oc3ccc4nnc(-c5ccccc5SCCO)n4c3)c3ccccc32)cc1 [Example 10]
> 8.00	COc1c(NC(=O)N[C@H]2CC[C@@H](Oc3ccc4nnc(C(C)C)n4c3)c3ccccc32)cc(C(C)(C)C)cc1NS(C)(=O)=O [Example 28, N-(5-tert-Butyl-3-{3-[(1S,4R)-4-(3-isopropyl-[1,2,4]triazolo[4,3-a]pyridin-6-yloxy)-1,2,3,4-tetrahydro-naphthalen-1-yl]-ureido}-2-methoxy-phenyl)-methanesulfonamide]
> 8.00	CC(C)c1nnc2ccc(O[C@@H]3CC[C@H](NC(=O)Nc4cc(C(C)(C)C)nn4-c4ccc(F)c(CN5CCOCC5)c4)c4ccccc43)cn12 [Example 31, 1-{5-tert-Butyl-2-(4-fluoro-3-morpholin-4-ylmethyl-phenyl)-2H-pyrazol-3-yl}-3-[(1S,4R)-4-(3-isopropyl-[1,2,4]triazolo[4,3-a]pyridin-6-yloxy)-1,2,3,4-tetrahydro-naphthalen-1-yl]-urea]
